Assays:
Type in all cases: in vivo
Parameters in all cases: key: A: Excellent control; B: Partial control; C: No control
[1] = system: house flies (Musca domestica, L.); assay: Fly Bait Test; conditions: adults, 500 ppm in sugar bait, twenty four hours
Protocol: (§1) Selected species of the new compounds were evaluated to determine their pesticidal activity against mites and certain insects, including anaphid, a caterpillar, a beetle and a fly.
(§2) Suspensions of the test compounds were prepared by dissolving one gram of compound in 50 milliliters of acetone in which had been dissolved 0.1 gram (10 percent of the weight of compound) of an alkylphenoxy polyethoxyethanol surfactant, as an emulsifying or dispersing agent. The resulting solution was mixed into 150 milliliters of water to give roughly 200 milliliters of a suspension containing the compound in finely divided form. The thus-prepared stock suspension contained 0.5 percent by weight of test compound. The test concentrations in parts per million by weight employed in the tests described hereinbelow were obtained by appropriate dilutions of the stock suspension with water. The test procedures were as follows:
Four to six day old adult house flies (Musca domestica, L.) reared according to the specifications of the Chemical Specialities Manufacturing Association (Blue Book, McNair-Dorland Co., NY., 1954; pages 234-244, 261) under controlled conditions of 80°±5° F. and 50±5 per cent relative humidity, were the test insects. The flies were immobilized by anesthetizing with carbon dioxide and twenty five immobilized individuals, males and females, were transferred to a cage consisting of a standard food stainer about five inches in diameter which was inverted over a wrapping-paper-covered surface. The test compounds were formulated by diluting the stock suspension with a 10 per cent (by weight) sugar solution to give a suspension containing 500 parts of test compound per million parts of final formulation, by weight. Ten milliliters of the test formulation were added to a souffle cup containing a one inch square of an absorbent cotton pad. This bait cup was introduced and centered on the blotting paper under the food strainer prior to admitting the anesthetized flies. The caged flies were allowed to feed on the bait for twenty four hours, at a temperature of 80°±5° F. and the relative humidity of 50±5 per cent.
(§3) In these tests the pesticidal activity of the compounds against aphid, mite, Southern Armyworm, Mexican Bean Beetle, and house fly was rated as follows: […]

[2] = system: bean aphid (Aphis fabae Scop.); assay: Bean Aphid Foliage Spray Test; conditions: 500 ppm foliage spray, 24 hour holding period
Protocol: as §1, §2
Bean Aphid Foliage Spray Test
Adults and nymphal stages of the bean aphid (Aphis fabae Scop.) reared on potted dwarf nasturtium plants at 65°-70° F. and 50-70 per cent relative humidity, constituted the test insects. For testing purposes, the number of aphids per pot was standardized to 100-150 by trimming plants containing excess aphids.
The test compounds were formulated by diluting the stock suspension with water to give a suspension containing 500 parts of test compound per million parts of final formulation.
The potted plants (one pot per compound tested) infested with 100-150 aphids, were placed on a revolving turntable and sprayed with 100-110 milliliters of test compound formulation by use of a DeVilbiss spray gun set at 40 psig. air pressure. This application, which lasted 25 seconds, was sufficient to wet the plants to run-off. As a control, 100-110 milliliters of a water-acetone-emulsifier solution containing no test compound were also sprayed on infested plants. After spraying, the pots were placed on their sides on a sheet of white standard mimeograph paper which had been previously ruled to facilitate counting. Temperature and humidity in the test room during the 24 hour holding period were 65°-70° F. and 50-70 per cent, respectively. Aphids which fell into the paper and were unable to remain standing after being uprighted were considered dead. Aphids remaining on the plants wre observed closely for movement and those which were unable to move the length of the body upon stimulator by prodding were considered dead. Per cent mortality was recorded for various concentration levels.
as §3

[3] = system: two spotted mite (Tetranychus urticae Koch); assay: Mite Foliage Spray Test; conditions: 500 ppm foliage spray, six days
Protocol: as §1, §2
Adults and nymphal stages of the two spotted mite (Tetranychus urticae Koch), reared on Tendergreen bean plants at 80±5 per cent relative humidity, were the test organisms. Infested leaves from a stock culture were placed on the primary leaves of two bean plants six to eight inches in height, growing in a two-and-a-half inch clay pot. 150-200 mites, a sufficient number for testing, transferred from the excised leaves to the fresh plants in a period of twenty four hours. Following the twenty four hour transfer period, the excised leaves were removed from the infested plants. The test compounds were formulated by diluting the stock suspension with water to give a suspension with water to give a suspension containing 500 parts of test compound per million parts of final formulation. The potted plants (one pot per compound) were placed on a revolving turntable and sprayed with 100-110 milliliters of test compound formulation by use of a DeVilbiss spray gun set at 40 psig. air pressure. This application, which lasted for 25 seconds, was sufficient to wet the plants to run-off. As a control, 100-110 milliliters of a water solution containing acetone and emulsifier in the same concentrations as the test compound formulation, but containing no test compound, were also sprayed on infested plants. The sprayed plants were held at 80±5 per cent relative humidity for six days, after which a mortality count of motile forms were made. Microscopic examination for motile forms was made on the leaves of the test plants. Any individual which was capable of locomotion upon prodding, was considered living.
as §3

[4] = system: southern armyworm (Prodenia Eridania, (Cram.)); assay: Southern Armyworm Leaf Spray Test; conditions: larvae, 500 ppm leaf spray, three days
Protocol: as §1, §2
Southern Armyworm Leaf Spray Test
Larvae of the southern armyworm (Prodenia Eridania, (Cram.), reared on Tendergreen bean plants at a temperature of 80°±5° F. and a relative humidity of 50±5 per cent, constituted the test insects.
The test compounds were formulated by diluting the stock suspension with water to give a suspension containing 500 parts of test compound per million parts of final formulation. Potted Tendergreen bean plants of standard height and age were placed on a revolving turntable and sprayed with […] of test compound formulation by use of a DeVilbiss spray gun set at 10 psig. air pressure.
This application, which lasted 25 seconds, was sufficient to wet plants to run-off. As a control, 100-110 milliliters of a water-acetone-emulsifier solution containing no test compound were also sprayed on infested plants. When dry, the paired leaves were separated and each one was placed in a 9 centimeter Petric dish lined with moistened filter paper. Five randomly selected larvae were introduced into each dish and the dishes were closed. The closed dishes were labeled and held at 80°-85° F. for three days. Although the larvae could easily consume the whole leaf within twenty-four hours, no more food was added. Larvae which were unable to move the length of the body, even upon stimulation by prodding, were considered dead. Per cent mortality was recorded for various concentration levels.
as §3

[5] = system: Mexican bean beetle (Epilachna varivestis, Muls.); assay: Mexican Bean Beetle Leaf Spray Test; conditions: fourth instar larvae, 500 ppm leaf spray, three days
Protocol: as §1, §2
Mexican Bean Beetle Leaf Spray Test
Fourth instar larvae of the Mexican bean beetle (Epilachna varivestis, Muls.), reared on Tendergreen bean plants at a temperature of 80°±5° F. and 50±5 per cent relative humidity, were the test insects.
The test compounds were formulated by diluting the stock suspension with water to give a suspension containing 500 parts of test compound per million parts of final formulation. Potted Tendergreen bean plants of standard height and age were placed on a revolving turntable and sprayed with 100-110 milliliters of test compound formulation by use of DeVilbiss spray gun set at 10 psig air pressure. This application, which lasted 25 seconds, was sufficient to wet plants to run-off. As a control, 100-110 milliliters of a water-acetone-emulsifier solution containing no test compound were also sprayed on infested plants. When dry, the paired leaves were separated and each was placed in a 9 centimeter Petri dish lined with moistened filter paper. Five randomly selected larvae were introduced into each dish, and the dishes were closed. The closed dishes were labeled and held at a temperature of […]. for three days. Although the larvae could easily consume the leaf within 24 to 48 hours, no more food was added. Larvae which were unable to move the length of the body, even upon stimulation, were considered dead.
as §3

Compound | House-Fly pesticidal activity rating [1] | Bean Aphid pesticidal activity rating [2] | Mite pesticidal activity rating [3] | Southern Armyworm pesticidal activity rating [4] | Mexican Bean Beetle pesticidal activity rating [5]
CN(SC(Cl)(Cl)Cl)C(=O)ON=C1SC(=NS(C)(=O)=O)SC1(C)C [LVIII] | B | C | C | C | B
CN(SN1CCOCC1)C(=O)ON=C1SC(=C(C#N)C#N)SC1(C)C [LXXIV] | C | A | C | B | C
CCOC(=O)C(C#N)=C1SC(=NOC(=O)NC)C(C)(C)S1 [LXI] | C | C | C | C | A
CN=C1SC(=NOC(=O)N(C)SN(C)C(=O)ON=C2SC(=NC)SC2(C)C)C(C)(C)S1 [LXXVIII] | A | A | A | A | A
CNC(=O)ON=C1SC(=NS(=O)(=O)c2ccc(C)cc2)SC1(C)C [LIX] | C | C | C | C | C
CN(SC(Cl)(Cl)Cl)C(=O)ON=C1SC(=NC#N)SC1(C)C [LXX] | C | C | C | C | C
CCCCN=C1SC(=NOC(=O)N(C)SC(Cl)(Cl)Cl)C(C)(C)S1 [LIII] | A | A | A | C | A
CNC(=O)ON=C1CSC(=CC(C)=O)S1 [LXXVI] | A | C | C | C | B
CNC(=O)ON=C1SC(=NC#N)SC1(C)C [LXIX] | C | C | C | C | C
CC(C)N=C1SC(=NOC(=O)N(C)SSC(C)(C)C)C(C)(C)S1 [XLIX] | A | A | A | C | A
CCN=C1SC(=NOC(=O)N(C)SC(Cl)(Cl)Cl)C(C)(C)S1 [XLI, 5,5-Dimethyl-2-ethylimino-4-[[O-[N-methyl-N-(trichloromethanesulfenyl)carbamoyl]oximino]]-1,3-dithiolane] | A | A | A | B | A
CN(C)N=C1SC(=NOC(=O)N(C)SSC(C)(C)C)C(C)(C)S1 [XLII] | A | A | A | A | A
CN(SSC(C)(C)C)C(=O)ON=C1SC(=C(C#N)C#N)SC1(C)C [LXIV] | B | A | C | B | A
CCOC(=O)C(C#N)=C1SC(=NOC(=O)N(C)SC(Cl)(Cl)Cl)C(C)(C)S1 [LXV] | A | B | C | C | A
CN(SN(C)C(=O)ON=C1SC(=C(C#N)C#N)SC1(C)C)C(=O)ON=C1SC(=C(C#N)C#N)SC1(C)C [LXXVII] | C | C | C | C | A
CN(C)C(=O)ON=C1SC(=C(C#N)C#N)SC1(C)C [XLIII, 5,5-Dimethyl-2-(dicyanomethylidene)-4-[O-(N,N-dimethylcarbamoyl)oximino]-1,3-dithiolane] | B | B | C | C | B
CN=C1SC(=NOC(=O)N(C)SC(Cl)(Cl)Cl)C(C)(C)S1 [XLV] | A | A | A | A | A
